The text below walks through data of ChEMBL document CHEMBL5678818, “Discovery of potent SOS1 inhibitors that block RAS activation via disruption of the RAS-SOS1 interaction” (Proc Natl Acad Sci U S A, 2019).

Assay [1] deals with Calcium/calmodulin-dependent protein kinase type II subunit beta (Homo sapiens) (UniProt Q13554). Briefly: Inhibition of CAMK2B (unknown origin) assessed as residual activity at 1000 nM by KINOMEscan analysis relative to control.
The target of assay [2] is T1, Homeodomain-interacting protein kinase 4 (Homo sapiens) (UniProt Q8NE63).
T1 sequence (whole entry): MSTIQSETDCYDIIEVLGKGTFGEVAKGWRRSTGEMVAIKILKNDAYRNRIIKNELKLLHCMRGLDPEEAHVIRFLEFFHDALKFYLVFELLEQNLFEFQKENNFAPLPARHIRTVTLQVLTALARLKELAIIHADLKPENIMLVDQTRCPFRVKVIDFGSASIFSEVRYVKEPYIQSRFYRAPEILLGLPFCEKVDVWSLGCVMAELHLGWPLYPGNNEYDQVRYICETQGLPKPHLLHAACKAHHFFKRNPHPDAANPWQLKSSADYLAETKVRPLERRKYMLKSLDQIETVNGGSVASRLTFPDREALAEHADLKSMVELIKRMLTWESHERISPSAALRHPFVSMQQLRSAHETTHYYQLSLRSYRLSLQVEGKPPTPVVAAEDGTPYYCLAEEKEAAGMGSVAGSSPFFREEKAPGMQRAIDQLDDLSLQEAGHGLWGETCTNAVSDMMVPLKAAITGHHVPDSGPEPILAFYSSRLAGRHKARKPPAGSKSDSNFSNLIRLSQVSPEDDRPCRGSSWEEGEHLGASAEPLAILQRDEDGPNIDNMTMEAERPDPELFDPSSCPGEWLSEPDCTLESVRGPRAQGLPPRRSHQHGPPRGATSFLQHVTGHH
Briefly: Inhibition of HIPK4 (unknown origin) assessed as residual activity at 1000 nM by KINOMEscan analysis relative to control.

The target of assay [3] is Interleukin-1 receptor-associated kinase 1 (Homo sapiens) (UniProt P51617). Description: Inhibition of IRAK1 (unknown origin) assessed as residual activity at 1000 nM by KINOMEscan analysis relative to control.
For assay [4], the system named is Receptor-type tyrosine-protein kinase FLT3 (Homo sapiens), P36888 [D835H]. Description: Inhibition of FLT3 D835H mutant (unknown origin) assessed as residual activity at 1000 nM by KINOMEscan analysis relative to control.
For assay [5], the target named is Serine/threonine-protein kinase 26 (Homo sapiens) (UniProt Q9P289). Description: Inhibition of MST4 (unknown origin) assessed as residual activity at 1000 nM by KINOMEscan analysis relative to control.
Chain of Serine/threonine-protein kinase 26 (Homo sapiens) (Q9P289 2-416 limits assumed): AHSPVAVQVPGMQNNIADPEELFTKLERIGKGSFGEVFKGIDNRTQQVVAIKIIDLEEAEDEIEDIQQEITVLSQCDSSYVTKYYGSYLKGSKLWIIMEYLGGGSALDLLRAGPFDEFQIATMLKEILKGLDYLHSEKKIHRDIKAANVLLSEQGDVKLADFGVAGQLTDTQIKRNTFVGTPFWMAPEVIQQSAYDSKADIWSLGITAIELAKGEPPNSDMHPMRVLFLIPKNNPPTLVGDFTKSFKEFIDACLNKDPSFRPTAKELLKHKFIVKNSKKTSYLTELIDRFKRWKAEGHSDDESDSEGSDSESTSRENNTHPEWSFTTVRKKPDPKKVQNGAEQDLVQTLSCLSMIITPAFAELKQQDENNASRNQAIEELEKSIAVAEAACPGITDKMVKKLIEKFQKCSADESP
The target in assay [6] is Death-associated protein kinase 2 (Homo sapiens) (UniProt Q9UIK4). Description: Inhibition of DAPK2 (unknown origin) assessed as residual activity at 1000 nM by KINOMEscan analysis relative to control.
Chain of Death-associated protein kinase 2 (Homo sapiens) (Q9UIK4 whole entry, looked up): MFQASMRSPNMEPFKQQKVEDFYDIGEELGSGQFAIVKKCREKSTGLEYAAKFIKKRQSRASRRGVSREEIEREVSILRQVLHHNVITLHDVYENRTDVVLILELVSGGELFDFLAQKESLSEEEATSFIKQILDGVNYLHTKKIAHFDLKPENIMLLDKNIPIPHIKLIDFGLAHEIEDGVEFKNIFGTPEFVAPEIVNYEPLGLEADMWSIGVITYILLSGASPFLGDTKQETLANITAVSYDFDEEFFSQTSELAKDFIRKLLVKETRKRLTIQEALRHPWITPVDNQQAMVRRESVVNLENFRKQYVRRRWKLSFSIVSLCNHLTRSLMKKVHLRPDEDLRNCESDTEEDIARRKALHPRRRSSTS
Assay [7] deals with T2, Dual specificity mitogen-activated protein kinase kinase 4 (Homo sapiens) (UniProt P45985).
T2 sequence (whole entry): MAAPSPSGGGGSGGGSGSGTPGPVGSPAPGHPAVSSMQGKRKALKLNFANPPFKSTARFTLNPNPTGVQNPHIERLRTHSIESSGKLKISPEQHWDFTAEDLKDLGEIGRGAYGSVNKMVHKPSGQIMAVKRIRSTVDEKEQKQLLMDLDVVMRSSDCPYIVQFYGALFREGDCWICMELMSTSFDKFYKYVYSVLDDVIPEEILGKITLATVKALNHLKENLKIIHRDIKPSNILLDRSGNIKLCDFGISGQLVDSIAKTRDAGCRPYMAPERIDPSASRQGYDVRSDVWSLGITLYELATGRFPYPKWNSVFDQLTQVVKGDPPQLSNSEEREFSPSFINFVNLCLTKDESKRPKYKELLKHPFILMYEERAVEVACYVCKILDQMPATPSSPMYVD
Briefly: Inhibition of MEK4 (unknown origin) assessed as residual activity at 1000 nM by KINOMEscan analysis relative to control.

Assay [8] has as its target TRAF2 and NCK-interacting protein kinase (Homo sapiens) (UniProt Q9UKE5). Briefly: Inhibition of TNIK (unknown origin) assessed as residual activity at 1000 nM by KINOMEscan analysis relative to control.
In assay [9] the target is SRSF protein kinase 3 (Homo sapiens) (UniProt Q9UPE1). Briefly: Inhibition of SRPK3 (unknown origin) assessed as residual activity at 1000 nM by KINOMEscan analysis relative to control.
Chain of SRSF protein kinase 3 (Homo sapiens) (Q9UPE1 whole entry, looked up): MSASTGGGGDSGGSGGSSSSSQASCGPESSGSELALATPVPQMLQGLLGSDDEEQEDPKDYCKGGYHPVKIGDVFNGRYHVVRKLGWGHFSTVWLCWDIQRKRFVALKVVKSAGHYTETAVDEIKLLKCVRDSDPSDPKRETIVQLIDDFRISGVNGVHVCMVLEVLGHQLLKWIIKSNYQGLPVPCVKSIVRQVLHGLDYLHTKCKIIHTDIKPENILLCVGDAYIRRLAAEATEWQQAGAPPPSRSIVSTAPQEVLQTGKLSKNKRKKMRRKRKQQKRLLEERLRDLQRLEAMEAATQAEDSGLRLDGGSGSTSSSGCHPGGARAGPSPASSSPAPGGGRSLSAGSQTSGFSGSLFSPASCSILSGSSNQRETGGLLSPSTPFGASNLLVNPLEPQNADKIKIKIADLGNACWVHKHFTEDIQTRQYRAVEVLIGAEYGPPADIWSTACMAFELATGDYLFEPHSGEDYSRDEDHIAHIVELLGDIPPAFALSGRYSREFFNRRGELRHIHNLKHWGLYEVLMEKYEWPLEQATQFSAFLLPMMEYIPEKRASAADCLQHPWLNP
The target in assay [10] is Fibroblast growth factor receptor 1 (Homo sapiens) (UniProt P11362). Description: Inhibition of FGFR1 (unknown origin) assessed as residual activity at 1000 nM by KINOMEscan analysis relative to control.
Chain of Fibroblast growth factor receptor 1 (Homo sapiens) (P11362 22-822 limits assumed): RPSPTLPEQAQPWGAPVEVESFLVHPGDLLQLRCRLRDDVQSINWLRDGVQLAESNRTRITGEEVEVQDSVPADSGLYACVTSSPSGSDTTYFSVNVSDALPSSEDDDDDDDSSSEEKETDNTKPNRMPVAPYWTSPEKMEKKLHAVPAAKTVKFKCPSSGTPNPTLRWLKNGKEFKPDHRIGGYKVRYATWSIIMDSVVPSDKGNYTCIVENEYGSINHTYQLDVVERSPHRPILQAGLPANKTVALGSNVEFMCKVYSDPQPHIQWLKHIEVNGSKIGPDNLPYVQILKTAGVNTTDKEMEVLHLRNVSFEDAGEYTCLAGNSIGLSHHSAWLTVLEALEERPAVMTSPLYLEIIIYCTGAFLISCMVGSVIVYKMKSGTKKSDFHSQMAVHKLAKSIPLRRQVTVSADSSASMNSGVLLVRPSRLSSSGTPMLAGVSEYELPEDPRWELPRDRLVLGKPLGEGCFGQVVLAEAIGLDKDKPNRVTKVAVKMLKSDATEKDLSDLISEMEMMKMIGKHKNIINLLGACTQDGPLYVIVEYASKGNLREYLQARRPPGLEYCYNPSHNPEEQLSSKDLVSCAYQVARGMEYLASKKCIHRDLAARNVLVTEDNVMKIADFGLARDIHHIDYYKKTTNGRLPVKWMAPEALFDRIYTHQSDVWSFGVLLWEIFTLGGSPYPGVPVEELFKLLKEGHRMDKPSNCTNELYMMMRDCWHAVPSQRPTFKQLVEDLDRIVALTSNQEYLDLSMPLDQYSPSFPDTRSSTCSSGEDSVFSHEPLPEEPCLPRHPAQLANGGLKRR
The target in assay [11] is Protein kinase C delta type (Homo sapiens) (UniProt Q05655). Description: Inhibition of PRKCD (unknown origin) assessed as residual activity at 1000 nM by KINOMEscan analysis relative to control.
In assay [12] the target is Casein kinase I isoform gamma-3 (Homo sapiens) (UniProt Q9Y6M4). Description: Inhibition of CSNK1G3 (unknown origin) assessed as residual activity at 1000 nM by KINOMEscan analysis relative to control.
Chain of Casein kinase I isoform gamma-3 (Homo sapiens) (Q9Y6M4 whole entry, looked up, canonical isoform): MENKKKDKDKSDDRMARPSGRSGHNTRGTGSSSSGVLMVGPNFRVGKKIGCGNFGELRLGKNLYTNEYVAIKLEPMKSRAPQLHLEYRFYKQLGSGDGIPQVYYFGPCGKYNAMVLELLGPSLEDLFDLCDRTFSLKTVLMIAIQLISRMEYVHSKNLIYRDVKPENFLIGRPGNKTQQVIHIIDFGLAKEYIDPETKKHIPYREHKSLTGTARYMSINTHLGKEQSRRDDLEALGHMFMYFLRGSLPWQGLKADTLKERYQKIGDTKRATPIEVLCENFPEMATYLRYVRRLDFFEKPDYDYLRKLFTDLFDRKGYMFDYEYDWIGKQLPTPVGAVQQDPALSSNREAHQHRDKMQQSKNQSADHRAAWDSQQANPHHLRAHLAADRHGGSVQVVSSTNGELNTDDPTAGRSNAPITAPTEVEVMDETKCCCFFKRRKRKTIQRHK
The target of assay [13] is Dual specificity protein kinase CLK3 (Homo sapiens) (UniProt P49761). Description: Inhibition of CLK3 (unknown origin) assessed as residual activity at 1000 nM by KINOMEscan analysis relative to control.
Chain of Dual specificity protein kinase CLK3 (Homo sapiens) (P49761 whole entry, looked up): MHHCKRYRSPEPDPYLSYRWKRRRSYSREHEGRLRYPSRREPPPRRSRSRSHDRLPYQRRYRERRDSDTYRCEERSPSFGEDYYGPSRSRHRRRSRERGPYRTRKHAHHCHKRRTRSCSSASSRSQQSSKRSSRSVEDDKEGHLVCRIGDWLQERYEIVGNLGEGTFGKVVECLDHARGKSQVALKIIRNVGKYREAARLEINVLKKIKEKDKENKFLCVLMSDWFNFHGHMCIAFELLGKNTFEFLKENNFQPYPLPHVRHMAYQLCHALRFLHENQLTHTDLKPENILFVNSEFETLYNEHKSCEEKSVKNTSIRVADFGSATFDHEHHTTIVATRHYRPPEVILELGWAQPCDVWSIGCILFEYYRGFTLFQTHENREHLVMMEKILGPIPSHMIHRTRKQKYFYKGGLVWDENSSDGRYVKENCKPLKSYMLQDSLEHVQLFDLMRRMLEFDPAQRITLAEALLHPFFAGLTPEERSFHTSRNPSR
The test system of assay [14] is Tyrosine-protein kinase ABL1 (Homo sapiens), P00519 [H396P]. Description: Inhibition of nonphosphorylated ABL1 H396P mutant (unknown origin) assessed as residual activity at 1000 nM by KINOMEscan analysis relative to control.
Assay [15] has as its target Cyclin-dependent kinase 16 (Homo sapiens) (UniProt Q00536). Briefly: Inhibition of PCTK1 (unknown origin) assessed as residual activity at 1000 nM by KINOMEscan analysis relative to control.
For assay [16], the target named is Serine/threonine-protein kinase 4 (Homo sapiens) (UniProt Q13043). Description: Inhibition of MST1 (unknown origin) assessed as residual activity at 1000 nM by KINOMEscan analysis relative to control.
The target of assay [17] is Tyrosine-protein kinase Srms (Homo sapiens) (UniProt Q9H3Y6). Description: Inhibition of SRMS (unknown origin) assessed as residual activity at 1000 nM by KINOMEscan analysis relative to control.

Molecules are shown by their SMILES.

Chain of TRAF2 and NCK-interacting protein kinase (Homo sapiens) (Q9UKE5 whole entry, looked up): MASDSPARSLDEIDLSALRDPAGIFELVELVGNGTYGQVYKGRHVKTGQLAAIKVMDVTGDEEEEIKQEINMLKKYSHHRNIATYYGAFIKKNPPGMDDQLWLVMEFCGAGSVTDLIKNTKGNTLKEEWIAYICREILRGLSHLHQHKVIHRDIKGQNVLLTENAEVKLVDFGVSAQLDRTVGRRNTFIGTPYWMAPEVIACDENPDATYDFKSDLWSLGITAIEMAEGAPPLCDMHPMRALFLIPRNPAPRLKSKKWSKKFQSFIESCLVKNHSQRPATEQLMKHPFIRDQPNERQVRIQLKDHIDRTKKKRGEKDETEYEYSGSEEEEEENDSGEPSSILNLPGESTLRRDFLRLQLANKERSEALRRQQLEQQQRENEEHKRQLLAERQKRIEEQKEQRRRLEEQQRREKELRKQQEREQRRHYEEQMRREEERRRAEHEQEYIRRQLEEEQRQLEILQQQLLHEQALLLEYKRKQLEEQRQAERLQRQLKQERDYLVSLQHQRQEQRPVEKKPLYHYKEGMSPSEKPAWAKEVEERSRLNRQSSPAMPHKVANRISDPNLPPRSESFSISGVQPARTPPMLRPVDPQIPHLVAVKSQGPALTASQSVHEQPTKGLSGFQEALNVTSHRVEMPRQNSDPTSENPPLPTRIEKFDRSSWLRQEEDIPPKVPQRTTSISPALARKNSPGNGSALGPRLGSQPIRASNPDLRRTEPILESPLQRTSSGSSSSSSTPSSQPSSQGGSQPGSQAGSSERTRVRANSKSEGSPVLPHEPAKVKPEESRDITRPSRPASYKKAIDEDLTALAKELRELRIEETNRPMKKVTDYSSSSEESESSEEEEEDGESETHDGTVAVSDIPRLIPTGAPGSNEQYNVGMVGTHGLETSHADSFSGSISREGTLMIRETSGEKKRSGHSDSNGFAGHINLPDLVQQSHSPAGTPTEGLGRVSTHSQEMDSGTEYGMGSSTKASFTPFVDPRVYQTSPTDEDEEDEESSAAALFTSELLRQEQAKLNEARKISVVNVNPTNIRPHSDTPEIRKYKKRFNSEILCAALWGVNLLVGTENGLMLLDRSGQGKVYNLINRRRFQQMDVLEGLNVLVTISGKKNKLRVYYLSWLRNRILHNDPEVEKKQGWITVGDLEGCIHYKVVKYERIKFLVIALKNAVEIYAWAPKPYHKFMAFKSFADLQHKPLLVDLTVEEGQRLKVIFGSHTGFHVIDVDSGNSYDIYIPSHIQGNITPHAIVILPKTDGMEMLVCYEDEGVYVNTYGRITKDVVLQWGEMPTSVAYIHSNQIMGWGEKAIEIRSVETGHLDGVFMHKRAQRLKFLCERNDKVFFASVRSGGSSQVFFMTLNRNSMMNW
Chain of Cyclin-dependent kinase 16 (Homo sapiens) (Q00536 whole entry): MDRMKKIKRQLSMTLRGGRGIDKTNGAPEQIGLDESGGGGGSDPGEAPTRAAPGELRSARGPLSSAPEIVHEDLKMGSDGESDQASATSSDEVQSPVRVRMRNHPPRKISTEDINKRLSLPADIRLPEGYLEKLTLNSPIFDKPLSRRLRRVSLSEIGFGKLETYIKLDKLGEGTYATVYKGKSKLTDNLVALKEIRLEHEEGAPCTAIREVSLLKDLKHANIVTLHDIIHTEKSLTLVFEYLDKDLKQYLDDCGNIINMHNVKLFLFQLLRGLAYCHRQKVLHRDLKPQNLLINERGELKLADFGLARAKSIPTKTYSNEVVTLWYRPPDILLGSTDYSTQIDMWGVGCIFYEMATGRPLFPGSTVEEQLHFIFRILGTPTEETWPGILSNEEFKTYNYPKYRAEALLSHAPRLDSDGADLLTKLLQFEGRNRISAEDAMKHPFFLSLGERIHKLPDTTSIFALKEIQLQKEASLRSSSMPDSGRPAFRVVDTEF

With `COc1cc2nc(C)nc(N[C@H](C)c3cccc(-c4cn[nH]c4)c3)c2cc1OC`, the Activity in assay [1] came to 97%; in assay [2], 80%; in [3], 68%; in assay [4], 100%; in [5] it was 74%; in [6] it was 73%. Also, the Activity in assay [7] was 100%; in assay [8], 87%; in [9], 93%; in assay [10], 65%; in assay [11], 59%; in [12] it was 80%. The Activity in assay [13] came out at 81%; in assay [14], 71%; in [15], 95%; in assay [16], 97%; in assay [17] it was 87%.
Regarding `COc1cc2ncnc(N[C@H](C)c3cccc4ccccc34)c2cc1OC`, the Activity in [1] was 96%; in assay [2] it was 100%; in assay [3], 85%; in [4], 96%; in assay [5], 98%; in assay [6] it was 99%. The Activity in assay [7] came out at 97%; in assay [8], 100%; in assay [9] it was 100%; in assay [10], 80%; in assay [11] it was 81%; in assay [12], 100%. Besides, the Activity in assay [13] turned out to be 100%; in [14], 100%; in assay [15], 88%; in [16], 99%; in assay [17], 83%.
